Here are results for four molecules from US20250295655A1, “BRUTON'S KINASE INHIBITORS FOR THE TREATMENT OF A SUDDEN ALLERGIC REACTION” (ALK-ABELLÓ A/S, priority 2022, published 2025).

One assay has as its system basophils. Briefly: Basophil activation (CD63 FACS) after allergen stimulation, BTKi added before or after. Format: cell-based, human. Particulars: BTKi 1000 or 5000 nM added before or 1, 5, 15, 30 min after allergen stimulation; vs water control. How it is done: PBMCs were isolated from heparinized blood using Leucoseptubes (Greiner 227390) with Lymfoprep (Fresenius Kabi 1114547). Following isolation, the cells were washed and resuspended in RPMI 0.5% HSA (RPMI 1640 Gibco 72400-021, HSA Sigma A8763) to 0.25× original blood volume. 2 ng/ml of cytokine IL-3 (RD Peprotec cat nr 200-03) was added to the cells for Basophil priming with final 1 ng/ml. 50 μl of the cell suspension was used for each test, corresponding to 200 μl blood.
The test can be carried out with any BTKi. In the present example, the following BTKis were tested: • Acalabrutinib (Cat A-7337, 100 mM in DMSO) was diluted in RPMI 0.5% HSA to a concentration of 10,000 and 2,000 nM. • Ibrutinib was diluted in RPMI 0.5% HSA to a concentration of 20.000, 5.000 and 1.000 nM. • Branebrutinib was diluted in RPMI 0.5% HSA to a concentration of 20.000 and 5.000 nM. • Remibrutinib was diluted in RPMI 0.5% HSA to a concentration of 20.000 and 5.000 nM. • Pirtobrutinib was diluted in RPMI 0.5% HSA to a concentration of 20.000 and 5.000 nM.
Allergens: Grass pollen extract of the species Phleum pratense (ALK) was diluted in RPMI 0.5%-HSA to five concentrations of 100, 10, 1.0, 0.1 and 0.01 ng/ml. House dust mite allergen extract of the species Dermatophagoides pterinussinus (Derp ex) were made in concentrations of 0.1, 1 and 10 ug/ml by dilution in RPMI 0.5% HSA.
The experiment was performed in 96 deep-well plates. 50 μl cell suspension (as described above) was added to each well. 50 μl activation stimuli and 100 μl BTK inhibitor or buffer were added at different time points (t=0 min, 5 min, 15 min or 30 min). Following addition of the components, the plate was incubated at 37° C. water bath for one hour. After incubation, the activation was stopped by adding 500 μl FACS FLOW (BD342003), 0.5% BSA (Fisher scientific BP9703-100)+10 mM EDTA (Invitrogen 15575-038). The plate was centrifuged for 5 min, at 600×G and 4° C. Supernatants were harvested and used for measurement of histamine by ELISA (supplier). Cell pellets were further washed and stained for FACS analysis with CD63 FITC (BD 557288) CD203c APC (e-bio) and CD123 PE (BD340545) using standard FACS staining procedure, 30 min on ice protected from light, followed by fixation with Cell Fix (BD) before analysis on Fortessa flowcytometer. Flowcytometer data was analyzed using FlowJo software and statistical data from here used for data analysis.

A further assay concerns basophil cells. Particulars: pretreatment of basophil cells before allergen exposure; cited from earlier work.
The test system of the next assay is ex-vivo blood basophils. The note with it: leukemia patient treated with ibrutinib; cited from earlier work.
Assay [1] concerns mast cell and basophil reactivity to food. The note with it: ibrutinib daily for up to seven days before allergen exposure; cited from earlier work.
Another assay concerns JAK2/STAT3 pathway. Particulars: cited from earlier work.

Consider `CC#CC(=O)N[C@H]1CCCN(c2c(F)cc(C(N)=O)c3[nH]c(C)c(C)c23)C1` [Branebrutinib, 4-[(3S)-3-(but-2-ynoylamino)piperidin-1-yl]-5-fluoro-2,3-dimethyl-1H-indole-7-carboxamide], for which the “activation of cells after stimulation with an allergen (percent activation of basophils)” value (from here on “activation … (percent activation of basophils)”) in the assay on basophils is recorded as “able to decrease the activation of cells”.

For `C=CC(=O)N1CCC[C@@H](n2nc(-c3ccc(Oc4ccccc4)cc3)c3c(N)ncnc32)C1` [Ibrutinib, 1-[(3R)-3-[4-amino-3-(4-phenoxyphenyl)-1H-pyrazolo[3,4-d]pyrimidin-1-yl]-1-piperidinyl]-2-propen-1-one], in the assay on basophils, the “activation … (percent activation of basophils)” value is “able to decrease the activation of cells”. In addition, in the assay with basophil cells, the IgE-mediated histamine release result was “inhibit IgE-mediated histamine release”. Besides, the “IgE-dependent histamine release in ex-vivo blood basophils” value in the assay on ex-vivo blood basophils is recorded as “largely suppressed”. The “mast cell and basophil reactivity to food (SPT, BAT)” value in assay [1] was “can reduce mast cell and basophil reactivity”. The “inhibition of JAK2/STAT3 pathway induced by Concavalin A” value with JAK2/STAT3 pathway is listed as “able to inhibit”.

As for `COc1ccc(F)cc1C(=O)NCc1ccc(-c2nn([C@@H](C)C(F)(F)F)c(N)c2C(N)=O)cc1` [Pirtobrutinib, 5-amino-3-[4-[[(5-fluoro-2-methoxybenzoyl)amino]methyl]phenyl]-1-[(2S)-1,1,1-trifluoropropan-2-yl]pyrazole-4-carboxamide], the “activation … (percent activation of basophils)” value in the assay on basophils is “able to decrease the activation of cells”.

As for `C=CC(=O)N(C)CCOc1c(N)ncnc1-c1cc(F)cc(NC(=O)c2ccc(C3CC3)cc2F)c1C` [Remibrutinib, N-[3-[6-amino-5-[2-[methyl(prop-2-enoyl)amino]ethoxy]pyrimidin-4-yl]-5-fluoro-2-methylphenyl]-4-cyclopropyl-2-fluorobenzamide], the “activation … (percent activation of basophils)” value in the assay on basophils is on record as “able to decrease the activation of cells”.
